Measured values as given in a melting point compilation (Tetko et al.; mined from patent text by program, amines drawn as free bases though some values may be those of a salt).

Going from `CC(c1ccc(F)c(Br)c1)N(O)C(N)=O` (stereo not drawn) to `CCOC(=O)C(F)Sc1ccc(O)cc1` (stereo not drawn), the melting point falls from 125 °C to 72 °C.

Compared with `CCCCC(=O)C1(Nc2ccccc2)CCN(CCc2ccccc2)CC1`, `O=C(O)CC(Cc1ccccc1)N1C(=O)c2ccccc2C1=O` (stereo not drawn) is higher in melting point: 71.3 °C for the first, 123 to 124 °C for the second.

First: NC(=O)Nc1ccc2c(c1)C(CN1CCC(c3ccc(F)cc3)CC1)CC2 (stereo not drawn)
Second: CC(=O)Nc1ccc(N2C(=O)CCCC2c2ccc(Cl)c(Cl)c2)cc1 (stereo not drawn)
The melting point of the first is lower: 172 to 174 °C for the first, 267 to 268 °C for the second.

Compared with `COc1ccc2nc3ccc(C(=O)OCOC(=O)C(C)(C)C)cn3c(=O)c2c1`, `COc1ccc(NC(=O)c2c(C)nc3ccccc3c2O)cc1` is higher in melting point: 129 to 131 °C for the first, 222 °C for the second.

First: C=CCSc1nnc(OC)c2c1CCCC2
Second: CCCC1CCC(C2Cc3c4c(c(F)c(F)c3O2)OCCC4)CC1 (stereo not drawn)
The melting point of the first is lower: 46 to 48 °C for the first, 96 °C for the second.

First: O=C(OCc1ccccc1)c1ncc(OCc2ccccc2)c(OCc2ccccc2)c1Br
Second: CCN(CC)Cc1ccc2[nH]c(C)c(C(=O)OCc3ccccc3)c2c1
The melting point of the first is higher: 120 °C for the first, 106 to 108 °C for the second.

Compared with `COCc1cnc2c([N+](=O)[O-])cccc2c1Cl`, `O=[N+]([O-])c1cccnc1NCc1ccc(Cl)cc1` is higher in melting point: 91 to 94 °C for the first, 95 to 96 °C for the second.

First: O=C1Nc2ccccc2C12CCNCC2
Second: O=S(=O)(c1ccc(Br)cc1)N1CCC2(C=Cc3ccccc32)CC1
The melting point of the first is higher: 184 to 186 °C for the first, 177 to 178 °C for the second.

Compared with `OCC1OC(n2ncc3c(SCC=Cc4ccccc4)ncnc32)C(O)C1O` (stereo not drawn), `O=c1c(C(F)(F)F)cn(C2CC(O)C(COCc3ccccc3)O2)c(=O)n1C1CCCO1` (stereo not drawn) is lower in melting point: 165 to 166 °C for the first, 145 to 147 °C for the second.

First: CCOP(=O)(OCC)C(Nc1nc2ccccc2[nH]1)P(=O)(OCC)OCC
Second: CCOc1nc(CC)c(CNC(=O)C(S)CC(C)C)n1Cc1ccc(-c2ccccc2C(=O)O)cc1F (stereo not drawn)
The melting point of the first is higher: 169 to 170 °C for the first, 151 °C for the second.

First: CC(C)c1ccc(S(=O)(=O)Nc2ccc(N3CCC(NCC(O)COc4ccc(O)c(S(C)=O)c4)CC3)nc2)cc1 (stereo not drawn)
Second: CC(C)c1ccc(N(Cc2ccc(N(C)C)cc2)C(=O)C2CCCc3cc(OCCO)ccc32)cc1 (stereo not drawn)
The melting point of the first is lower: 128 to 130 °C for the first, 141 °C for the second.

First: CCn1cc(C(=O)O)c(=O)c2cc(F)c(N3CCN4CCC3CC4)c(F)c21
Second: CC[C@H]1[C@@H](N)CN1c1cc2c(cc1F)c(=O)c(C(=O)O)cn2C1CC1 (relative stereo)
The melting point of the first is higher: 261 to 263 °C for the first, 236 to 237 °C for the second.

First: CN(CCc1ccc(O)c(O)c1)C(=O)/C=C/c1cccnc1
Second: COc1cccc(CCCNC(=O)C2CC2)c1
The melting point of the first is higher: 155 to 158 °C for the first, 65 to 67 °C for the second.

First: O=C1C=C/C(=C/c2cccc(C(F)(F)F)c2)O1
Second: CC(C)c1nn(-c2ccc(C(F)(F)F)cn2)cc1CCCCOc1cccc(OC(C)(C)C(=O)O)c1
The melting point of the first is lower: 69 to 71 °C for the first, 81 to 82 °C for the second.

First: COC(=O)NC(=O)n1cc(C(=O)c2ccn3c2CSC3c2cccnc2)c2ccc(OCc3ccccc3)cc21 (stereo not drawn)
Second: COCCOC(=O)c1ccc(C)c(-n2c(C)cc(OCc3ccccc3CNC(=O)Nc3cc(C(C)(C)C)nn3-c3cccc(OCCO)c3)c(Cl)c2=O)c1
The melting point of the first is higher: 152 to 153 °C for the first, 143 to 145 °C for the second.

First: N#Cc1cc(C(O)CN(Cc2ccccc2)Cc2ccccc2)cc2c1NCC2 (stereo not drawn)
Second: O=C(CC1CCc2ccccc2C1=O)c1ccccc1 (stereo not drawn)
The melting point of the first is higher: 139 to 140 °C for the first, 73 to 76 °C for the second.

Compared with `O=C(O)CCCNC(=O)S[C@@H]1CC(=O)N(Cc2ccc(Oc3ccc(F)cc3)nc2)C1`, `Cc1nn(C)c(C)c1CNC(=O)c1ccnc(N2CCN(Cc3ccc(F)cc3)C2=O)c1` is higher in melting point: 131 to 132 °C for the first, 179 to 181 °C for the second.

First: CCC(CC)c1ccc(Cl)c2nc3n(c12)CCN3C(=O)c1c(C)cc(C)cc1C
Second: CCC(CC)Oc1cc(C)nc(Nc2c(C)cc(C)cc2C)c1C(=O)n1ccnc1
The melting point of the first is higher: 234 to 236 °C for the first, 120 to 122 °C for the second.

First: N=C(N)c1ccc(N2CCN(c3ccc(S(=O)(=O)CC(=O)O)cc3)C2=O)cc1
Second: O=C1CCC(NC(=O)OC(=O)c2ccccc2)(C(=O)OCc2ccc([N+](=O)[O-])cc2)O1 (stereo not drawn)
The melting point of the first is higher: over 260 °C for the first, 127 to 128 °C for the second.

First: O=C(Nc1cccc(F)n1)Nc1cccc2c1C1CCCCN1C2=O (stereo not drawn)
Second: O=C(NC[C@H]1CN(c2ccc3c(c2)CCCc2cnoc2-3)C(=O)O1)c1ccccc1
The melting point of the first is higher: 254 °C for the first, 240 to 245 °C for the second.

First: CCOC(Cc1ccc(OCCN2CCC(C)(C)c3cc(C(=NOC)c4ccccc4)ccc32)cc1)C(=O)O (stereo not drawn)
Second: CN1CCN(C(=O)Oc2ccc(C[C@H](NC(=O)Nc3ccccc3S(=O)(=O)c3ccccc3)C(=O)O)cc2)CC1
The melting point of the first is lower: 62 to 64 °C for the first, 160 °C for the second.

Compared with `CC(C)(C)OC(=O)N1CCC2(CC1)NC(=O)N(CC(O)CO)C2=O` (stereo not drawn), `COC(=O)NNC(=O)CC(C)(C)C` is lower in melting point: 167 to 170 °C for the first, 83 to 84.5 °C for the second.

Compared with `N#CN1CCC2(CC1)CN(c1ccccc1[N+](=O)[O-])c1cc(Cl)ccc12`, `O=CNCC1c2cccc3c2N(CC3)c2ccccc2N1C=O` (stereo not drawn) is higher in melting point: 163 to 165 °C for the first, 201 to 202 °C for the second.

Compared with `Nc1nc(=O)n(C2CC(O)C(CO)O2)cc1F` (stereo not drawn), `CN1CCOc2cc([N+](=O)[O-])ccc2C1=O` is lower in melting point: 199 to 201 °C for the first, 130 to 132 °C for the second.

First: c1coc(-c2ccnc3[nH]c4ccccc4c23)c1
Second: CC1CN(C2=Nc3ccccc3Oc3ccccc32)CC(C)N1 (stereo not drawn)
The melting point of the first is higher: over 220 °C for the first, 112 to 114 °C for the second.

Compared with `Cc1ccccc1CCCc1c(C(C)C)nc(C(C)C)c(CO)c1-c1ccc(F)cc1`, `COCc1c(C=NO)ncc2[nH]c3cccc(Cc4ccccc4Cl)c3c12` is higher in melting point: 65 to 70 °C for the first, 209 to 212 °C for the second.

First: COc1ccc2cc(Br)ccc2c1C(=O)N(C)C
Second: COC(=O)c1cc(OC)c(OC)cc1C1=NCCc2ccccc21
The melting point of the first is lower: 124 to 125 °C for the first, 133 °C for the second.

Compared with `O=C(c1ccc(OCCCCl)cc1)c1cccc2[nH]ccc12`, `COC(=O)CCc1cc(C(=O)c2cccc(C(=O)OC)n2)ccc1OCCCC/C=C/c1ccc(OC)cc1` is lower in melting point: 86 °C for the first, 80 to 82 °C for the second.

First: CCCCCC1CCC(c2ccc(-c3ccc(Br)cc3C(F)(F)F)cc2)CC1 (stereo not drawn)
Second: CS(=O)(=O)c1ccc(-c2cnn(CC(F)(F)F)c(=O)c2-c2ccc(S(C)(=O)=O)cc2)cc1
The melting point of the first is lower: 51 to 52 °C for the first, 212 to 213 °C for the second.

First: COCCc1nc2c(N)nc3ccccc3c2n1CC(C)(C)CN(C(N)=O)c1ccccc1
Second: CC(C)(C)n1ncc(C(=O)c2ccc(S(C)(=O)=O)c(-c3ccccc3)c2Cl)c1O
The melting point of the first is lower: 125 to 130 °C for the first, 262 to 264 °C for the second.

First: COc1cncnc1OCc1ccc(C(C)(C)C)cc1
Second: COC=C(C(=O)OC)c1ccccc1Oc1ncnc(F)c1F
The melting point of the first is lower: 58 to 59 °C for the first, 69 °C for the second.

Compared with `COc1cc(COC(C)=O)c(COC(C)=O)cc1OCCCl`, `CCOC(=O)C1=C(COCc2nnc(C)o2)NC(C)=C(C(=O)OC)C1c1cccc(Cl)c1Cl` (stereo not drawn) is higher in melting point: 79 to 80 °C for the first, 118 to 120 °C for the second.

First: CN(C)c1cc(N2C(=O)N3CCCC3(Cc3ccc(Br)cc3)C2=O)cc(Cl)n1 (stereo not drawn)
Second: COc1ccc(-c2cc(=O)n(CCN3CCOCC3)nc2-c2ccc(OC)cc2)cc1
The melting point of the first is higher: 194 °C for the first, 145 to 146 °C for the second.

Compared with `CS(=O)(=O)c1ccc(C(=O)Nc2ccc(Cl)c(-c3ccc(OCCCCCCC(=O)NO)cn3)c2)c(Cl)c1`, `CCNC(=O)CC1CCN(Cc2cnc3cc(NC(=O)c4ccc(-c5ccc(Cl)cc5)cc4)ccc3c2)CC1` is higher in melting point: 140 to 145 °C for the first, 250 °C for the second.

First: OC1(CCc2ccc3[nH]cc(C4CCNCC4)c3c2)CCCC1
Second: ICCOc1ccc(C2=C(c3ccccc3)CCCc3cc(OC4CCCCO4)ccc32)cc1 (stereo not drawn)
The melting point of the first is higher: 190 to 191 °C for the first, 165 to 166 °C for the second.

First: COc1ccnc(CCc2nc3ccc(OC)nc3[nH]2)c1
Second: COc1cc(OC)cc(Sc2ccc([N+](=O)[O-])cc2)c1
The melting point of the first is higher: 93 to 95 °C for the first, 63 to 65 °C for the second.

First: Cc1c2n(c3ccc(Br)cc13)CCC(Br)C2=O (stereo not drawn)
Second: CCOc1cc2c(=O)cc(C(=O)O)[nH]c2ccc1=O
The melting point of the first is lower: 156 °C for the first, over 280 °C for the second.

`CON1CCC(=Cc2nc(C(C)(C)C)c(O)c(C(C)(C)C)n2)C1=O` and `CC(C)(C)c1cc(C(C)(C)C)c2op(Cl)oc3c(C(C)(C)C)cc(C(C)(C)C)cc3c2c1` cannot be ordered by melting point: 184 to 186 °C for the first, 183 to 186 °C for the second.

Compared with `COc1nc2ccccc2nc1NC(=O)N1CCN(c2cc([N+](=O)[O-])cc([N+](=O)[O-])c2)CC1`, `CCOC(=O)c1cn(CC)c2nc(N3CCN(Cc4ccccc4)CC3)ncc2c1=O` is lower in melting point: 216 to 218 °C for the first, 152 °C for the second.

First: CC1(C)CC(c2ccccc2)c2ccc(OCC3CO3)cc2O1 (stereo not drawn)
Second: COC(=O)Cc1cccc(NC(=O)NC2C(=O)Nc3ccccc3NC2=O)c1
The melting point of the first is lower: 82 to 85 °C for the first, over 300 °C for the second.

Compared with `CC1(C)OC(=O)c2ccc(COc3c(F)cc([N+](=O)[O-])cc3F)cc21`, `CC(C)(C)Nc1c(NCc2ccccc2F)c(=O)c1=O` is higher in melting point: 125 to 127 °C for the first, 260 to 262 °C for the second.

First: Cc1cc(=O)n(C)c2c(C)cc(C(O)(C(F)(F)F)C(F)(F)F)cc12
Second: CNc1c2c(nn1C)N(c1c(C)cc(C)cc1C)CCC2
The melting point of the first is higher: 241 to 243 °C for the first, 143 to 145 °C for the second.

First: CCCC1=CC(C)(C)Oc2c(OCC)cc(Cc3cnc(N)nc3N)cc21
Second: CCOC(=O)c1cnn(-c2ccc(OCC(C)C)c(C#N)c2)c1Cl
The melting point of the first is higher: 208 to 209 °C for the first, 87 °C for the second.

First: COc1ccc(C(=O)Nc2ccccc2)cc1NC(=S)Nc1c(F)c(F)cc(F)c1F
Second: C[C@H](NC(=O)c1cc(F)cc(NS(=O)(=O)CC2CN(C(c3ccc(Cl)cc3)c3ccc(Cl)cc3)C2)c1)C(N)=O
The melting point of the first is lower: 170 to 174 °C for the first, 219 to 221 °C for the second.

Compared with `Cc1cc(Br)cnc1CCCCNC1=NS(=O)(=O)c2ccccc21`, `CC1=C(Cl)C(=O)c2ccccc2C1=O` is lower in melting point: 232 to 244 °C for the first, 152 to 154 °C for the second.

First: CC(C)c1[nH]nc(C(N)=O)c1N
Second: CC(C)c1cc(C(=O)Nc2ccc(C(=O)O)c(Cl)c2)sc1C(C)C
The melting point of the first is lower: 178 to 179 °C for the first, 222 to 223 °C for the second.

Compared with `O=c1oc2ccccc2c(=O)n1CCCCCCCCCO`, `O=C1CN(Cc2ccccn2)CC(=O)N1CCCN1CCN(c2ccc(F)cc2)CC1` is lower in melting point: 125 to 128 °C for the first, 90 °C for the second.

Compared with `COC(=O)c1ccc(F)cc1NS(C)(=O)=O`, `CN1C(=O)C(=CNc2ccncc2)C(=O)N(C)C1=O` is higher in melting point: 116 °C for the first, 233 to 235 °C for the second.

Compared with `NNc1ccc(-c2ccc(Cl)cc2)nn1`, `C=CCN1CCCC1CNC(C)=O` (stereo not drawn) is lower in melting point: 176 to 180 °C for the first, 42 °C for the second.
